Test system: Hs578T complex spheroid growth, percent test/control
Experiment: Anticancer human tumor Hs578T cell line growth inhibition [AhR];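 also: luminescent viability signal as a proxy for spheroid growth; spheroids exposed to agents for one week after three days of growth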
Details: for IC50: curve of first compound; for viability, T/C: stronger effect = lower value
Outline: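 Agents were dosed in half-log steps down from roughly clinical Cmax, or from 10 microM where Cmax was unknown, alone and with AhR antagonists. Read-out: percent test/control growth of tumor spheroids containing HUVEC and MSC stromal cells.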

[1] = second compound 0.1 µM, first compound 0.0316 µM
[2] = second compound 0.1 µM, first compound 0.1 µM
[3] = second compound 0.316 µM, first compound 0.0316 µM
[4] = second compound 0.316 µM, first compound 0.1 µM
[5] = second compound 1 µM, first compound 0.0316 µM
[6] = second compound 1 µM, first compound 0.1 µM
[7] = second compound 3.16 µM, first compound 0.0316 µM
[8] = second compound 3.16 µM, first compound 0.1 µM
[9] = second compound 10 µM, first compound 0.0316 µM
[10] = second compound 10 µM, first compound 0.1 µM

CC1(C)CCC(CN2CCN(c3ccc(C(=O)NS(=O)(=O)c4ccc(NCC5CCOCC5)c([N+](=O)[O-])c4)c(Oc4cnc5[nH]ccc5c4)c3)CC2)=C(c2ccc(Cl)cc2)C1 + Cc1cncc(-c2nc(NCCc3c[nH]c4ccccc34)c3ncn(C(C)C)c3n2)c1 was tested, and the IC50 (second compound 0.1 µM) was > 10000 nM, the IC50 (second compound 0.316 µM) was > 10000 nM and the IC50 (second compound 1 µM) was > 10000 nM. For the same compound, the IC50 (second compound 3.16 µM) was > 10000 nM, the IC50 (second compound 10 µM) was < 31.6 nM and the viability, T/C [1] was 117%. It also gave a viability, T/C [2] of 118%, a viability, T/C (second compound 0.1 µM, first compound 0.316 µM) of 115% and a viability, T/C (second compound 0.1 µM, first compound 1 µM) of 94.8%. For the same compound, the viability, T/C (second compound 0.1 µM, first compound 3.16 µM) was 95.9%, the viability, T/C (second compound 0.1 µM, first compound 10 µM) was 82.6% and the viability, T/C [3] was 117%. The viability, T/C [4] was 118%, the viability, T/C (second compound 0.316 µM, first compound 0.316 µM) was 112% and the viability, T/C (second compound 0.316 µM, first compound 1 µM) was 109%. For the same compound, the viability, T/C (second compound 0.316 µM, first compound 3.16 µM) was 105%, the viability, T/C (second compound 0.316 µM, first compound 10 µM) was 97.4% and the viability, T/C [5] was 113%. For the same compound, the viability, T/C [6] was 111%, the viability, T/C (second compound 1 µM, first compound 0.316 µM) was 109% and the viability, T/C (second compound 1 µM, first compound 1 µM) was 108%. For the same compound, the viability, T/C (second compound 1 µM, first compound 3.16 µM) was 111%, the viability, T/C (second compound 1 µM, first compound 10 µM) was 92.8% and the viability, T/C [7] was 49.6%. The viability, T/C [8] was 65.6%, the viability, T/C (second compound 3.16 µM, first compound 0.316 µM) was 65.5% and the viability, T/C (second compound 3.16 µM, first compound 1 µM) was 56.4%. The viability, T/C (second compound 3.16 µM, first compound 3.16 µM) was 69.2%, the viability, T/C (second compound 3.16 µM, first compound 10 µM) was 75.2% and the viability, T/C [9] was 3.98%. For the same compound, the viability, T/C [10] was 3.8%, the viability, T/C (second compound 10 µM, first compound 0.316 µM) was 4.95% and the viability, T/C (second compound 10 µM, first compound 1 µM) was 5.32%. The viability, T/C (second compound 10 µM, first compound 3.16 µM) was 4.95% and the viability, T/C (second compound 10 µM, first compound 10 µM) was 8.06%.

With CCN(c1cc(-c2ccc(CN3CCOCC3)cc2)cc(C(=O)NCc2c(C)cc(C)[nH]c2=O)c1C)C1CCOCC1 + Cc1cncc(-c2nc(NCCc3c[nH]c4ccccc34)c3ncn(C(C)C)c3n2)c1 the IC50 (second compound 0.1 µM) was > 3000 nM, the IC50 (second compound 0.316 µM) was > 3000 nM and the IC50 (second compound 1 µM) was > 3000 nM. For the same compound, the IC50 (second compound 3.16 µM) was < 9.49 nM, the IC50 (second compound 10 µM) was < 9.49 nM and the viability, T/C (second compound 0.1 µM, first compound 0.00949 µM) was 111%. It also gave a viability, T/C (second compound 0.1 µM, first compound 0.03 µM) of 95.9%, a viability, T/C (second compound 0.1 µM, first compound 0.0949 µM) of 101% and a viability, T/C (second compound 0.1 µM, first compound 0.3 µM) of 107%. For the same compound, the viability, T/C (second compound 0.1 µM, first compound 0.949 µM) was 94.4%, the viability, T/C (second compound 0.1 µM, first compound 3 µM) was 106% and the viability, T/C (second compound 0.316 µM, first compound 0.00949 µM) was 111%. It also gave a viability, T/C (second compound 0.316 µM, first compound 0.03 µM) of 99.9%, a viability, T/C (second compound 0.316 µM, first compound 0.0949 µM) of 106% and a viability, T/C (second compound 0.316 µM, first compound 0.3 µM) of 96.6%. It also gave a viability, T/C (second compound 0.316 µM, first compound 0.949 µM) of 99.5%, a viability, T/C (second compound 0.316 µM, first compound 3 µM) of 90.7% and a viability, T/C (second compound 1 µM, first compound 0.00949 µM) of 103%. It also gave a viability, T/C (second compound 1 µM, first compound 0.03 µM) of 102%, a viability, T/C (second compound 1 µM, first compound 0.0949 µM) of 101% and a viability, T/C (second compound 1 µM, first compound 0.3 µM) of 93.5%. The viability, T/C (second compound 1 µM, first compound 0.949 µM) was 105%, the viability, T/C (second compound 1 µM, first compound 3 µM) was 93.3% and the viability, T/C (second compound 3.16 µM, first compound 0.00949 µM) was 49.8%. For the same compound, the viability, T/C (second compound 3.16 µM, first compound 0.03 µM) was 46.4%, the viability, T/C (second compound 3.16 µM, first compound 0.0949 µM) was 51.5% and the viability, T/C (second compound 3.16 µM, first compound 0.3 µM) was 48%. It also gave a viability, T/C (second compound 3.16 µM, first compound 0.949 µM) of 46%, a viability, T/C (second compound 3.16 µM, first compound 3 µM) of 51.7% and a viability, T/C (second compound 10 µM, first compound 0.00949 µM) of 6.41%. For the same compound, the viability, T/C (second compound 10 µM, first compound 0.03 µM) was 5.56%, the viability, T/C (second compound 10 µM, first compound 0.0949 µM) was 7.45% and the viability, T/C (second compound 10 µM, first compound 0.3 µM) was 5.08%. For the same compound, the viability, T/C (second compound 10 µM, first compound 0.949 µM) was 5.95% and the viability, T/C (second compound 10 µM, first compound 3 µM) was 3.67%.

With Cn1ncnc1C1c2n[nH]c(=O)c3cc(F)cc(c23)NC1c1ccc(F)cc1 (stereo not given) + Cc1cncc(-c2nc(NCCc3c[nH]c4ccccc34)c3ncn(C(C)C)c3n2)c1 the IC50 (second compound 0.1 µM) was > 100 nM, the IC50 (second compound 0.316 µM) was > 100 nM and the IC50 (second compound 1 µM) was > 100 nM. The IC50 (second compound 3.16 µM) was > 100 nM, the IC50 (second compound 10 µM) was < 0.316 nM and the viability, T/C (second compound 0.1 µM, first compound 0.000316 µM) was 103%. It also gave a viability, T/C (second compound 0.1 µM, first compound 0.001 µM) of 104%, a viability, T/C (second compound 0.1 µM, first compound 0.00316 µM) of 112% and a viability, T/C (second compound 0.1 µM, first compound 0.01 µM) of 99%. It also gave a viability, T/C [1] of 111%, a viability, T/C [2] of 108% and a viability, T/C (second compound 0.316 µM, first compound 0.000316 µM) of 107%. The viability, T/C (second compound 0.316 µM, first compound 0.001 µM) was 115%, the viability, T/C (second compound 0.316 µM, first compound 0.00316 µM) was 116% and the viability, T/C (second compound 0.316 µM, first compound 0.01 µM) was 106%. The viability, T/C [3] was 97.4%, the viability, T/C [4] was 108% and the viability, T/C (second compound 1 µM, first compound 0.000316 µM) was 101%. The viability, T/C (second compound 1 µM, first compound 0.001 µM) was 105%, the viability, T/C (second compound 1 µM, first compound 0.00316 µM) was 98% and the viability, T/C (second compound 1 µM, first compound 0.01 µM) was 98.5%. For the same compound, the viability, T/C [5] was 97%, the viability, T/C [6] was 97.6% and the viability, T/C (second compound 3.16 µM, first compound 0.000316 µM) was 67.8%. For the same compound, the viability, T/C (second compound 3.16 µM, first compound 0.001 µM) was 73.3%, the viability, T/C (second compound 3.16 µM, first compound 0.00316 µM) was 72.4% and the viability, T/C (second compound 3.16 µM, first compound 0.01 µM) was 69%. It also gave a viability, T/C [7] of 70.5%, a viability, T/C [8] of 64.1% and a viability, T/C (second compound 10 µM, first compound 0.000316 µM) of 8.48%. The viability, T/C (second compound 10 µM, first compound 0.001 µM) was 9.41%, the viability, T/C (second compound 10 µM, first compound 0.00316 µM) was 9.77% and the viability, T/C (second compound 10 µM, first compound 0.01 µM) was 7.44%. The viability, T/C [9] was 9.58% and the viability, T/C [10] was 9.69%.

Reference: PubChem BioAssay AID1919010 (Molecular Pharmacology Branch, DTP, NCI, 2023)
